Legend:
Assay type in all cases: in vivo, rat
hTac1-hM4D [1] = target: T1, hTac1-hM4D (Homo sapiens, UniProt P08173, A203G/Y113C); assay: Pain-like behavior after IoN-CCI, Tac1-DREADD (hTac1-hM4D); conditions: IoN-CCI males
T1 construct: expressed in transfected cells; host or cells: rat trigeminal ganglion neurons in vivo, viral vector with Tac1 promoter
T1 sequence (P08173 1-479 Y113C/A203G): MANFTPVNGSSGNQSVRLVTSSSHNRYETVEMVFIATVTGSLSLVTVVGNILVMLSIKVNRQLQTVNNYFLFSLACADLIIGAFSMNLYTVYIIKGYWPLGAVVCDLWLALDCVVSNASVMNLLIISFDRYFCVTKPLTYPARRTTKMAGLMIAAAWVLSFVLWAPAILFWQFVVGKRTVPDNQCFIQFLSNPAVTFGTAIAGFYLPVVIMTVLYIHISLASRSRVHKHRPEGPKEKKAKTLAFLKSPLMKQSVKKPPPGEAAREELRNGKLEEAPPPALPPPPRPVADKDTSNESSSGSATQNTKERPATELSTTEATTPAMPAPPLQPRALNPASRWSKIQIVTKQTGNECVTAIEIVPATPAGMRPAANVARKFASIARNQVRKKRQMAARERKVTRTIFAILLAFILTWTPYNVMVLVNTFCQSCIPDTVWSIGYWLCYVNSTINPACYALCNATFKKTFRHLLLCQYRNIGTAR
Source text: For the infraorbital nerve chronic constriction injury (ION-CCI), ˜0.5 cm of the infraorbital nerve will be freed and two chromic gut ligatures will be loosely tied around it (2 mm apart) prior to closure of the incision (all performed under ketamine/xylazine anesthesia). As a control, other rats will undergo sham surgery where the infraorbital nerve is exposed but left untouched. This model results in persistent pain beginning at about 2 weeks postoperatively and lasting at least 3 weeks (Benoliel et al. (2001) Neurosci. Lett., 297:151-4; Benoliel et al. (2002) Pain 97:203-12), allowing for the assessment of the effect of vehicle vs CNO/DREADD-mediated inhibition of TG neurons on this behavior at multiple time points. Fos expression and cAMP levels may also be measured in the TG to correlate these molecular endpoints to behavioral effects of DREADD activation. The rats will also undergo repeated stimulation with a 2-g von Frey hair applied to the hairy skin of the vibrissae on the operated side to induce Fos (Vos et al. (1995) J. Comp. Neurol., 357:362-75). Activation of hM4Di receptors will reduce Fos in the TG following von Frey stimulation.
The effects of Tac1-DREADD activation with CNO on pain-like behavior following IoN-CCI were studied (FIG. 10). The mean von Frey detection thresholds (±SEM) (left) and the mean response scores (±SEM) (right) to the pin-prick stimulation applied to the vibrissal pads were plotted. All animals (males, n=7 per group) were exposed to the infraorbital nerve chronic constriction injury (IoN-CCI) unilaterally. Following IoN-CCI, all animals had tachykinin 1-DREADD (hTac1-hM4D) injected into the ipsilateral trigeminal ganglion. At post-operative day 26 (D26) CNO or vehicle was delivered intraperitoneally 30 minutes prior to behavioral testing.

hSyn-hM4D [2] = target: T2, hSyn-hM4D (Homo sapiens, UniProt P08173, A203G/Y113C); assay: Face grooming after s.c. formalin into right upper lip, synapsin-DREADD (hSyn-hM4D); conditions: n=7 per group, vs vehicle
T2 construct: expressed in transfected cells; host or cells: rat trigeminal ganglion neurons in vivo, viral vector with synapsin promoter
T2 sequence (P08173 1-479 Y113C/A203G): T1 sequence (P08173 1-479 Y113C/A203G)
Description: (§1) The effects of synapsin-DREADD activation with CNO on face grooming activity observed after subcutaneous (s.c.) injection of formalin into the right upper lip were also studied (FIG. 5). The mean number of seconds that rats (males, n=7 per group; females, n=7 per group) spent grooming (±SEM) is plotted for the 45 minutes post-formalin injection observation period. All animals had synapsin-DREADD (hSyn-hM4D) injected into the right trigeminal ganglion. CNO or vehicle was delivered intraperitoneally 30 minutes prior to the s.c. injection of 1.5% formalin (50 μl) into the right upper lip (ipsilateral side), just lateral to the nose.

hSyn-hM4D [3] = target: T2, hSyn-hM4D; assay: von Frey detection threshold, synapsin-DREADD (hSyn-hM4D) in right trigeminal ganglion, non-CCI animals; conditions: n=7 per group, CNO i.p. vs vehicle
Source text: The effects of synapsin-DREADD activation with CNO on von Frey detection threshold were studied (FIG. 3). The von Frey assay uses von Frey fibers, which are small pieces of nylon rod of varying diameters, to test a rodent's sensitivity to a mechanical stimulus. The von Frey assay is generally considered a mechanical nociceptive threshold test. All animals (males, n=7 per group; females, n=7 per group) had synapsin-DREADD (hSyn-hM4D; synapsin promoter driven DREADD) injected into the right trigeminal ganglion. Average von Frey detection thresholds (±SEM) were plotted following intraperitoneal (i.p.) administration of CNO or vehicle.

hTac1-hM4D [4] = target: T1, hTac1-hM4D; assay: Face grooming after s.c. formalin into right upper lip, Tac1-DREADD (hTac1-hM4D); conditions: females, n=7 per group, vs vehicle
Description: as §1, with “Tac1-DREADD” for “synapsin-DREADD”, “s.c.” for “subcutaneous (s.c.)”, “9).” for “5).”, “(females,” for “(males, n=7 per group; females,”, “Tac1-DREADD (hTac1-hM4D)” for “synapsin-DREADD (hSyn-hM4D)”, “i.p.” for “intraperitoneally”

hSyn-hM4D [5] = target: T2, hSyn-hM4D; assay: Pin-prick response score, synapsin-DREADD (hSyn-hM4D) in right trigeminal ganglion, non-CCI animals; conditions: n=7 per group, CNO i.p. vs vehicle
Source text: The effects of synapsin-DREADD activation with CNO on pin-prick response score were also studied (FIG. 4). The pin-prick assay is generally considered a nociceptive threshold test. All animals (males, n=7 per group; females, n=7 per group) had synapsin-DREADD (hSyn-hM4D) injected into the right trigeminal ganglion. Average pin-prick response scores (±SEM) are plotted following intraperitoneal (i.p.) administration of CNO or vehicle.

[6] = Tac1-DREADD study (sentence prints hSyn-hM4D), CNO i.p. at D26

Structure (SMILES): C[N+]1([O-])CCN(C2=Nc3cc(Cl)ccc3Nc3ccccc32)CC1 [CNO, clozapine N-oxide]
- von Frey detection threshold, ipsilateral side, compared to vehicle treated animals (hTac1-hM4D [1]; n=7 per group, hTac1-hM4D, CNO i.p. at D26, 30 min prior to testing, F=6.3, P=0.03): significantly increased
- pin-prick response score, ipsilateral vibrissal pad, compared to vehicle treated animals (hTac1-hM4D [1]; n=7 per group, hTac1-hM4D, CNO i.p. at D26, F=8.6, P=0.01): significantly decreased
- pin-prick response score, contralateral side (hTac1-hM4D [1]; [6]): No significant effects
- von Frey detection threshold, contralateral side (hTac1-hM4D [1]; [6]): No significant effects
- pin-prick response score, ipsilateral side, compared to post-operative days 21 and 27 (hTac1-hM4D [1]; hTac1-hM4D, CNO i.p. at D26, D21 F=18.9, P=0.0003, D27 F=16.9, P=0.0006): significantly decreased
- von Frey detection threshold, ipsilateral side, compared to post-operative days 21 and 27 (hTac1-hM4D [1]; hTac1-hM4D, CNO i.p. at D26, D21 F=31.4, P<0.0001, D27 F=9.8, P=0.006): significantly increased
- total face grooming time, tonic phase (12-45 minutes post formalin injection) (hSyn-hM4D [2]; females, CNO i.p. 30 min prior to formalin, F=5.5, P=0.02): significantly reduced
- total face grooming time, tonic phase (12-45 minutes post formalin injection) (hSyn-hM4D [2]; males, CNO i.p. 30 min prior to 1.5% formalin (50 μl) s.c., F=27.1, P<0.0001): significantly reduced
- total face grooming time, acute phase (0-6 minutes post formalin injection) (hSyn-hM4D [2]; males, CNO i.p. 30 min prior to formalin, F=4.5, P=0.04): significant reduction
- von Frey detection threshold, ipsilateral vibrissal pad (hSyn-hM4D [3]; females, D28, 30 min after CNO, F=1.2, P=0.3): no significant effect
- von Frey detection threshold, contralateral vibrissal pad (hSyn-hM4D [3]; females, F=2.8, P=0.1): no significant effect
- von Frey detection threshold, contralateral vibrissal pad (hSyn-hM4D [3]; males, F=1.2, P=0.3): no significant effect
- von Frey detection threshold, ipsilateral vibrissal pad (hSyn-hM4D [3]; males, F=3.3, P=0.1): no significant effect
- total face grooming time, acute phase (0-6 minutes post formalin injection) (hTac1-hM4D [4]; CNO i.p. 30 min prior to 1.5% formalin (50 μl) s.c., F=0.07, P=0.8): no significant effect
- total face grooming time, tonic phase (12-45 minutes post formalin injection) (hTac1-hM4D [4]; CNO i.p. 30 min prior to formalin, F=1.6, P=0.2): no significant effect
- pin-prick response score, contralateral side (hSyn-hM4D [5]; females, F=0.1, P=0.7): no significant effect
- pin-prick response score, ipsilateral side (hSyn-hM4D [5]; females, F=0.1, P=0.8): no significant effect
- pin-prick response score, contralateral (left) vibrissal pad (hSyn-hM4D [5]; males, F=1.3, P=0.3): No significant effect
- pin-prick response score, ipsilateral (right) vibrissal pad (hSyn-hM4D [5]; males, F=9.8, P=0.01): significantly reduced
